Here are results for four compounds from patent publication US20100256145A1, “USE OF KCNQ POTASSIUM CHANNEL OPENERS FOR REDUCING SYMPTOMS OF OR TREATING DISORDERS OR CONDITIONS WHEREIN THE DOPAMINERGIC SYSTEM IS DISRUPTED” (H. LUNDBECK A/S, priority 2007, published 2010).

Assay [1] has as its system social behaviours in the Mutual Resident Intruder rat test. Nature of the assay: Mutual Resident Intruder rat test. The conditions noted are these: for % of time Agonistic behaviour: sum of defensive and aggressive behaviour.
Assay [2] concerns social behaviours in the rat Tetradic Encounter test. Briefly: Rat Tetradic Encounter test. The settings on record: for % of time Agonistic behaviour: sum of defensive and aggressive behaviour.
For assay [3], the system named is choice of the large-but-delayed reward (impulsivity). Nature of the assay: Rat T-maze procedure: large-but-delayed vs small-but-immediate reward. Format: in vivo. The conditions noted are these: juvenile Wistar rats; for % Choice of the large but delayed reward on Control sessions: placebo administered before control (pre-drug and post-drug) sessions of the same group. As for the experimental part: Subjects. male Wistar AF rats (28-41 days old) (Centre d′Elevage René Janvier, France) were used. […] During the whole study, tap water was provided ad libitum. Food was restricted to 5-10 g/day/animal in order to maintain animals at 65-75% of their free feeding weight
Experimental procedure. The experiments were performed in two identical T-maze apparatus constructed from opaque grey plastic tubing and consisting of a starting runway (30 cm long) and two arms (35 cm long) each leading to a rectangular black plastic goal box (18 cm large, 30 cm wide, 10 cm high). Removable grey plastic guillotine doors could be inserted into the vertical clefts, situated at the entry of the starting runway and at each end of the arms. One of the goal-boxes (left or right, depending on the rats) was constantly provided with a large reward, the other with a small reward. Large and small rewards consisted, respectively, of 5 and 1 pellets (20 mg, Technical & Scientific Equipment GmbH, Germany). The pellets were placed in a translucent food-cup before each trial.
First phase: habituation. Animals were first subjected to two 5-min sessions of habituation. The rat was gently introduced in the starting runway, which then was closed with a guillotine door inserted in the cleft (referred to as c0 in FIG. 1). The animal was allowed to freely explore the apparatus and to eat food rewards placed in the food cups.
Second phase: pretraining. After a door was placed in the cleft c2 near each goal-box, the rat was introduced in the starting runway. When it entered one of the two arms, a door was inserted behind it in the cleft c1 near the choice area and the door placed in cleft c2 was removed. As soon as the animal entered the goal-box, the door was placed again in the cleft c2. The rat was removed from the goal-box as soon as the pellets were eaten (usually within less than 1 min). The animal was then returned to its home cage for an intertrial interval of 2 to 3 min. Each rat was submitted one to five times/day to five trials sessions in this procedure. Training was initiated when the rat selected the arm giving access to the large reward in more than 14 out of 15 trials.
Third phase: training. Rats underwent one to five times/day five trials training sessions during which a delay was introduced before access to the large reward. After a door was placed in the cleft c2 near each goal-box, the rat was introduced in the starting runway. When it entered one of the two arms, a second door was inserted behind it in the cleft c1 near the choice area, so that rat selecting the arm leading to the large reward could be detained in this arm for a period (referred to as the waiting delay) before having access to the reinforcement. Otherwise, if the animal selected the arm leading to the small reward, the door placed in the cleft c2 was immediately opened, allowing the animal to enter the goal-box. At the beginning of training, the waiting delay was 30 sec. Then, if the percentage of choices of the large and delayed reward remained high (i.e. ≧40%) for more than six sessions, it was increased to 45 sec, and if necessary to 60 sec, 90 sec and finally 120 sec. Drug testing began when the animal selected the large and delayed reward in two trials out of five (or less) in two consecutive sessions and in one trial out of five (or less) in the following session.
Drug testing was conducted over six consecutive test-sessions of five trials each, during which the access to the large reward was preceded by the waiting delay. Test sessions were: Two control pre-drug sessions: control pre-drug session 1 and control pre-drug session 2; Two drug sessions: drug session 1 and drug session 2; Two control post-drug sessions: control post-drug session 1 and control post-drug session 2.

Setting [4] is: 1 mg/kg s.c. 30 min before test.
Setting [5] is: 5 mg/kg s.c. 30 min before test.

Marks after values point to notes of the source that are not given here.

As for `C[C@H](N)Cc1ccccc1` [Amphetamine, D-amphetamine, reference compound], in assay [1] (0.5 mg/kg (positive control)), the “% of time Aggressive behaviour” value is 3.9*** % of time, the “% of time Defensive behaviour” value is 4.0*** % of time, the “% of time Friendly behaviour” value was 5.3 % of time and the “% of time Non-social behaviour” value is listed as 86.8*** % of time. Moreover, the “% of time Agonistic behaviour” value in assay [1] (0.5 mg/kg (positive control)) was 7.9*** % of time. Also, in assay [2] (0.5 mg/kg (positive control)), the “% of time Aggressive behaviour” value is on record as 0.1*** % of time, the “% of time Defensive behaviour” value is 1.2*** % of time, the “% of time Friendly behaviour” value is reported as 17.3* % of time and the “% of time Non-social behaviour” value was 81.4*** % of time. The “% of time Agonistic behaviour” value in assay [2] (0.5 mg/kg (positive control)) is 1.4*** % of time.
Take `Cc1cc(N2CCOCC2)nc(C)c1NC(=O)CC(C)(C)C` [Compound 3, N-(2,4-dimethyl-6-morpholin-4-yl-pyridin-3-yl)-3,3-dimethylbutyramide]: in assay [3] (2.5 mg/kg s.c. 30 min before the test), the “% Choice of the large but delayed reward on Drug sessions” value (shortened to “% Choice … on Drug sessions”) worked out at 25.0 ± 6.7 %. In assay [3], the “% Choice of the large but delayed reward on Control sessions” value (“% Choice … on Control sessions” for short) was 8.3 ± 2.8%. In assay [1] (setting [4]), the “% of time Aggressive behaviour” value was 12.0 % of time, the “% of time Defensive behaviour” value was 12.3 % of time, the “% of time Friendly behaviour” value is listed as 3.4 % of time and the “% of time Non-social behaviour” value was 72.3 % of time. Moreover, the “% of time Agonistic behaviour” value in assay [1] (setting [4]) is 24.3 % of time. Moreover, in assay [1] (setting [5]), the “% of time Aggressive behaviour” value is reported as 0.2*** % of time, the “% of time Defensive behaviour” value is on record as 0.2*** % of time, the “% of time Friendly behaviour” value is 2.3 % of time and the “% of time Non-social behaviour” value is recorded as 97.4*** % of time. In addition, the “% of time Agonistic behaviour” value in assay [1] (setting [5]) was 0.3*** % of time. In addition, in assay [2] (setting [4]), the “% of time Aggressive behaviour” value is recorded as 5.9 % of time, the “% of time Defensive behaviour” value is 8.5 % of time, the “% of time Friendly behaviour” value is 20.2 % of time and the “% of time Non-social behaviour” value is recorded as 65.4 % of time. For the same compound, in assay [2] (setting [4]), the “% of time Agonistic behaviour” value is listed as 14.4 % of time. In assay [2] (setting [5]), the “% of time Aggressive behaviour” value is recorded as 0.1** % of time, the “% of time Defensive behaviour” value is 0.0*** % of time, the “% of time Friendly behaviour” value was 20.0 % of time and the “% of time Non-social behaviour” value is 79.9*** % of time. Further, the “% of time Agonistic behaviour” value in assay [2] (setting [5]) is on record as 0.1*** % of time.
As to `CNCC[C@@H](Oc1ccccc1C)c1ccccc1` [Atomoxetine, reference compound], the “% Choice … on Drug sessions” value in assay [3] (1 mg/kg i.p. 30 min before the test) turned out to be 40.0 ± 2.2 %. Also, the “% Choice … on Control sessions” value in assay [3] came out at 10.7 ± 2.3%.
As to `COc1cc(N2CCOCC2)cc(C)c1NC(=O)CC1CCCC1` [Compound 2], the “% Choice … on Drug sessions” value in assay [3] (1 mg/kg s.c. 30 min before the test) is 33.3 ± 3.3 %. In assay [3], the “% Choice … on Control sessions” value worked out at 11.7 ± 2.5%. In addition, in assay [1] (setting [4]), the “% of time Aggressive behaviour” value is on record as 15.5 % of time, the “% of time Defensive behaviour” value is given as 17.3 % of time, the “% of time Friendly behaviour” value is on record as 4.0 % of time and the “% of time Non-social behaviour” value is on record as 63.1 % of time. For the same compound, the “% of time Agonistic behaviour” value in assay [1] (setting [4]) is on record as 32.8*** % of time. In addition, in assay [1] (setting [5]), the “% of time Aggressive behaviour” value was 0.7*** % of time, the “% of time Defensive behaviour” value is recorded as 0.2*** % of time, the “% of time Friendly behaviour” value was 2.4 % of time and the “% of time Non-social behaviour” value is 96.6*** % of time. Moreover, in assay [1] (setting [5]), the “% of time Agonistic behaviour” value is reported as 0.9*** % of time. In addition, in assay [2] (setting [4]), the “% of time Aggressive behaviour” value is listed as 5.3 % of time, the “% of time Defensive behaviour” value is 7.2 % of time, the “% of time Friendly behaviour” value is 18.2* % of time and the “% of time Non-social behaviour” value is reported as 69.3 % of time. Further, the “% of time Agonistic behaviour” value in assay [2] (setting [4]) is 12.5 % of time. Besides, in assay [2] (setting [5]), the “% of time Aggressive behaviour” value is 0.4** % of time, the “% of time Defensive behaviour” value is on record as 0.8*** % of time, the “% of time Friendly behaviour” value is 26.2 % of time and the “% of time Non-social behaviour” value was 72.7** % of time. For the same compound, the “% of time Agonistic behaviour” value in assay [2] (setting [5]) was 1.2*** % of time.
